According to the Deep4Chem optical property database:
Where “and” joins values, the source holds several entries; their conditions need not be identical. Identical values can stand only once.

Assay: photoluminescence quantum yield (fraction); solvent given as SMILES

## Cc1cc(C)c(C2=C3C=C(/C=C/C(=O)OC(C)(C)C)C=[N+]3[B-](F)(F)n3c2ccc3N2CCOCC2)c(C)c1
In CC#N
  photoluminescence quantum yield: 0.13
In CCCCCC
  photoluminescence quantum yield: 0.88
In CN(C)C=O
  photoluminescence quantum yield: 0.15
In CO
  photoluminescence quantum yield: 0.21
In Cc1ccccc1
  photoluminescence quantum yield: 0.64
In ClCCl
  photoluminescence quantum yield: 0.49

## N#Cc1cnc(-c2c3ccccc3c(-c3ccccc3)c3ccccc23)nc1
In CCO
  photoluminescence quantum yield: 0.04
In ClCCl
  photoluminescence quantum yield: 0.0001

## N#Cc1c(-n2nnc3cc(Cl)ccc32)n([C@H]2C[C@H](O)[C@@H](CO)O2)c2ncnc(N)c12
In CO
  photoluminescence quantum yield: 0.008

## CCOC(=O)c1c2c3c(ccc(Cl)c3c3cc4ccccc4cc13)N(C)C2=O
In CC#N
  photoluminescence quantum yield: 0.41

## N#Cc1ccc(/C2=C3N=C(C(c4ccccc4)=C/3c3ccccc3)/C(c3ccc(C#N)cc3)=c3\[nH]/c(c(-c4ccccc4)c3-c3ccccc3)=C(/c3ccc(C#N)cc3)C3=N/C(=C(/c4ccc(C#N)cc4)c4[nH]c2c(-c2ccccc2)c4-c2ccccc2)C(c2ccccc2)=C3c2ccccc2)cc1
In ClCCl
  photoluminescence quantum yield: 0.004

## N=c1oc2cccc3c4c(-c5ccccc5)oc5cccc(c(c1-c1ccccc1)c23)c54
In ClC(Cl)Cl
  photoluminescence quantum yield: 0.04

## COC(=O)c1ccc(/C=C2\C=C(c3ccccc3)OC2=O)cc1
In C1COCCO1
  photoluminescence quantum yield: 0.007

## CCCCCCCCOc1ccc(C#Cc2c3cc4ccccc4cc3c(C#Cc3ccc(F)cc3)c3cc4ccccc4cc23)cc1
In ClCCl
  photoluminescence quantum yield: 0.03

## CC(C)c1cccc(C(C)C)c1-n1c(=O)c2ccc3c4ccc5c(=O)n(-c6c(C(C)C)cccc6C(C)C)c(=O)c6cc7c(-c8ccccn8)nc8cc(c1=O)c2c3c8c7c4c56
In ClC(Cl)Cl
  photoluminescence quantum yield: 0.36

## COCCOCCOc1cc(C=O)c(OCCOCCOC)cc1C=O
In CC(C)(C)O
  photoluminescence quantum yield: 0.12
In CC(C)CO
  photoluminescence quantum yield: 0.09
In CC(C)O
  photoluminescence quantum yield: 0.08
In CCCCO
  photoluminescence quantum yield: 0.14
In CCCO
  photoluminescence quantum yield: 0.15
In CCO
  photoluminescence quantum yield: 0.15
In CN(C)C=O
  photoluminescence quantum yield: 0.05
In CNC=O
  photoluminescence quantum yield: 0.03
In CO
  photoluminescence quantum yield: 0.22
In NC=O
  photoluminescence quantum yield: 0.26
In O
  photoluminescence quantum yield: 0.55

## CCOC(=O)c1ccccc1-c1c2ccc(=O)cc-2oc2cc(OC(=O)[C@H](CO[Si](C)(C)C(C)(C)C)NC(=O)OC(C)(C)C)ccc12
In C1CCOC1
  photoluminescence quantum yield: 0.003
In CC#N
  photoluminescence quantum yield: 0.003
In CCO
  photoluminescence quantum yield: 0.048
In CS(C)=O
  photoluminescence quantum yield: 0.01

## N#Cc1c(C#N)c2cc(Cl)c(Cl)cc2c2cc(Cl)c(Cl)cc12
In ClC(Cl)Cl
  photoluminescence quantum yield: 0.01

## C=CCNc1ccc2ccc3oc4cc(=[N+]5CCCC5)ccc-4nc3c2c1
In CC#N
  photoluminescence quantum yield: 0.1
In CCO
  photoluminescence quantum yield: 0.04
In ClCCl
  photoluminescence quantum yield: 0.13
In O
  photoluminescence quantum yield: 0.006

## F[B-]1(F)n2c(Nc3cccc4cccnc34)ccc2C(c2ccccc2)=C2C=CC(Cl)=[N+]21
In C1CCCCC1
  photoluminescence quantum yield: 0.17
In CC#N
  photoluminescence quantum yield: 0.0024
In Cc1ccccc1
  photoluminescence quantum yield: 0.04
In ClC(Cl)Cl
  photoluminescence quantum yield: 0.01

## COc1ccc2c(c1)C(=O)c1cc(OC)cc(OC)c1-2
In C1CCCCC1
  photoluminescence quantum yield: 0.0024
In CC#N
  photoluminescence quantum yield: 0.0001
In CCO
  photoluminescence quantum yield: 0

## COC(=O)c1ccc(C2=C(/C=C/c3ccc(OC)cc3)O[B-](F)(F)[O+]=C2/C=C/c2ccc(OC)cc2)cc1
In ClCCl
  photoluminescence quantum yield: 0.43

## CCOC(=O)c1cc(C(=O)OCC)c2cc(NC(=O)C(F)(F)F)ccc2n1
In CCO
  photoluminescence quantum yield: 0.34

## Cc1ccc(C2=C3C=CC(Sc4ccccc4)=[N+]3[B-](F)(F)n3c(Sc4ccccc4)ccc32)cc1
In C1CCOC1
  photoluminescence quantum yield: 0.82

## O=C1NC(=O)/C(=C\c2ccccc2O)S1
In C1CCCCC1
  photoluminescence quantum yield: 0.02
In C1COCCO1
  photoluminescence quantum yield: 0.031
In CC#N
  photoluminescence quantum yield: 0.025
In CN(C)C=O
  photoluminescence quantum yield: 0.064
In CO
  photoluminescence quantum yield: 0.02
In O
  photoluminescence quantum yield: 0.011
In OCC(O)CO
  photoluminescence quantum yield: 0.632
In OCCO
  photoluminescence quantum yield: 0.115

## COc1ccc(C2=[N+]3C(=Nc4c(-c5ccc6ccccc6c5)cc(-c5ccc(OC)cc5)n4[B-]3(F)F)C(c3ccc4ccccc4c3)=C2)cc1
In ClCCl
  photoluminescence quantum yield: 0.34

## CC(C)(C)c1ccc(-c2c(-c3ccc4c5ccccc5n(-c5ccccc5)c4c3)c(C#N)c(-c3ccc4c5ccccc5n(-c5ccccc5)c4c3)c(-c3ccc(C(C)(C)C)cc3)c2-c2ccc(C(C)(C)C)cc2)cc1
In C1CCOC1
  photoluminescence quantum yield: 0.457

## c1ccc(-c2cc(-c3ccccc3)[o+]c(-c3ccccc3)c2)cc1
In CC#N
  photoluminescence quantum yield: 0.4
In ClCCCl
  photoluminescence quantum yield: 0.28

## O=[N+]([O-])c1ccc(-c2cn3ccc[n+]3[n-]2)cc1
In ClCCl
  photoluminescence quantum yield: 0.16

## F[B-]1(F)OC(/C=C/c2ccccc2)=CC(c2ccccc2)=[O+]1
In ClCCl
  photoluminescence quantum yield: 0.02

## N#Cc1cc(C#N)c(-n2c3ccccc3c3c(-c4cccc5c4c4ccccc4n5-c4cc(-n5c6ccccc6c6ccccc65)c(C#N)cc4C#N)cccc32)cc1-n1c2ccccc2c2ccccc21
In O=P(c1ccccc1)(c1ccccc1)c1ccccc1Oc1ccccc1P(=O)(c1ccccc1)c1ccccc1
  photoluminescence quantum yield: 0.61

## c1ccc(-c2ccnc(-c3ccccc3)n2)cc1
In ClC(Cl)Cl
  photoluminescence quantum yield: 0.51

## CC1=CC(c2ccc3ccccc3c2)=[O+][B-]2(OC(=O)C(=O)O2)O1
In CC#N
  photoluminescence quantum yield: 0.03
In ClC(Cl)(Cl)Cl
  photoluminescence quantum yield: 0.06

## COc1ccc(N(c2ccccc2)c2ccccc2)cc1
In Cc1ccccc1
  photoluminescence quantum yield: 0.03

## c1ccc(-c2cc3cccc[n+]3[b-]3ccc(-c4cc[b-]5c(c4)c(-c4ccccc4)cc4cccc[n+]54)cc32)cc1
In C1CCCCC1
  photoluminescence quantum yield: 0.16

## c1ccc(-p2c(-c3cccs3)cc3ccccc32)cc1 (stereo not drawn)
In C1CCOC1
  photoluminescence quantum yield: 0.07

## N#Cc1c(-n2nnc3ccc(Cl)cc32)n([C@H]2C[C@H](O)[C@@H](CO)O2)c2ncnc(N)c12
In CO
  photoluminescence quantum yield: 0.008

## Cc1ccc(C2=Cc3c4ccccc4c4ccccc4[n+]3[B-](F)(F)O2)cc1
In ClC(Cl)Cl
  photoluminescence quantum yield: 0.275

## Cn1c(-c2ccc(-c3nc(-c4ccccc4)c(-c4ccccc4)n3C)cc2)nc(-c2ccccc2)c1-c1ccccc1
In CC#N
  photoluminescence quantum yield: 0.9 and 0.66

## CCc1c(C(=O)OC)c(C(=O)OC)c2ccc(-c3ccccc3)nn12
In CCCCCC
  photoluminescence quantum yield: 0.543

## c1csc(-c2cnc(-c3cccs3)c3nonc23)c1
In C1CCCCC1
  photoluminescence quantum yield: 0.54
In CC(C)=O
  photoluminescence quantum yield: 0.39
In CCCCCC
  photoluminescence quantum yield: 0.54
In CCCO
  photoluminescence quantum yield: 0.22
In CCO
  photoluminescence quantum yield: 0.19
In CCOCC
  photoluminescence quantum yield: 0.52
In CO
  photoluminescence quantum yield: 0.15
In Cc1ccccc1
  photoluminescence quantum yield: 0.35
In ClC(Cl)(Cl)Cl
  photoluminescence quantum yield: 0.43
In ClC(Cl)Cl
  photoluminescence quantum yield: 0.35
In O=[N+]([O-])c1ccccc1
  photoluminescence quantum yield: 0.2
In OCC(O)CO
  photoluminescence quantum yield: 0.03
In OCc1ccccc1
  photoluminescence quantum yield: 0.12
In c1ccc2ncccc2c1
  photoluminescence quantum yield: 0.25
In c1ccccc1
  photoluminescence quantum yield: 0.4
In c1ccncc1
  photoluminescence quantum yield: 0.23

## Cc1ccc(C2=C3C=CC(/C=C/c4ccccc4)=[N+]3[B-](F)(F)n3c(Cl)ccc32)cc1
In C1CCCCC1
  photoluminescence quantum yield: 0.72
In C1CCOC1
  photoluminescence quantum yield: 0.56
In C1COCCO1
  photoluminescence quantum yield: 0.6
In CCOC(C)=O
  photoluminescence quantum yield: 0.57
In CO
  photoluminescence quantum yield: 0.55
In Cc1ccccc1
  photoluminescence quantum yield: 0.69
In ClC(Cl)Cl
  photoluminescence quantum yield: 0.68

## Nc1n[n+]([O-])c2cc(F)ccc2[n+]1[O-]
In CC#N
  photoluminescence quantum yield: 0.0077
In O
  photoluminescence quantum yield: 0.003

## CCN(CC)c1ccc(-n2cccc2)cc1
In CC#N
  photoluminescence quantum yield: 0.13
In CCCCCC
  photoluminescence quantum yield: 0.11

## C(=C\c1nc2ccccc2[nH]1)/c1ccc(/C=C/c2nc3ccccc3[nH]2)cc1
In C1CCOC1
  photoluminescence quantum yield: 0.855
In CC#N
  photoluminescence quantum yield: 0.679
In CC(C)=O
  photoluminescence quantum yield: 0.609
In CN(C)C=O
  photoluminescence quantum yield: 0.775
In CO
  photoluminescence quantum yield: 0.738
In CS(C)=O
  photoluminescence quantum yield: 0.63
